{"source": "patent US12264163B2", "about": "“Compounds and methods for treating fibrotic pathologies” (Mayo Foundation for Medical Education and Research, priority 2019, dated 2025)", "key": {"YAP/TAZ": {"test_system": "YAP/TAZ", "assay": "YAP/TAZ nuclear localization in IPF patient-derived lung fibroblasts treated with dopaminergic agonists", "format": "cell-based, human", "details": "10 μM, 2 hours", "description": "IPF patient-derived lung fibroblasts cells treated 2 hours prior to fixation with diverse dopaminergic agonists (10 μM). N=4 different patient samples. % nuclear localization of YAP/TAZ was determined using automated imaging software. Scale bar represents 100 μm.\n(§1) Media was then exchanged for the indicated conditions for each experiment. […] Cells or tissue sections were incubated overnight with mouse monoclonal antibody against αSMA (Sigma-Aldrich F3777), and/or a rabbit monoclonal antibody against YAP/TAZ (Cell Signaling D24E4) diluted 1:200 in PBS with 1% BSA. Cells were then washed and exposed to flourescence-conjugated secondary antibodies (Invitrogen) diluted 1:1000 and DAPI (Thermo Fisher Scientific). Images were taken with a Cytation5 (BioTek) microscope. For scoring αSMA positive cells (FIG. 12), an observer blinded to the treatment conditions counted αSMA-positive cells using a visual threshold for bright fibrous staining; a minimum of 200 cells was counted for each condition. YAP/TAZ localization was quantified (FIGS. 6-10, 24-26, and 29-30) using Gen5 (Biotek) software. Images were taken at 4× magnification of both DAPI and YAP/TAZ staining. […] Quantification of double positive (YAP/TAZ and αSMA) cells from lung tissue sections (FIG. 17-21) was performed similarly; however separate thresholds were established for both YAP/TAZ and αSMA. A minimum of 4000 cells was quantified for each mouse."}, "αSMA": {"test_system": "αSMA", "assay": "αSMA intensity (fibroblast activation) in IPF patient-derived lung fibroblasts + TGFβ, dopaminergic agonist library", "format": "cell-based, human", "details": "1 μM + TGFβ, 72 hours", "description": "as §1"}}, "note": "Structures can show the parent of a compound that is named as a salt.", "data": [{"smiles": "CCCN1CCO[C@@H]2c3cc(O)ccc3OC[C@H]21.Cl", "note": "(racemic) [(±)-PD 128,907•HCl, (±)-PD 128,907]", "values": [{"measurement": "Nuclear localization (% of total cells)", "setting": "YAP/TAZ; IPF-1 patient fibroblasts", "value": "60.13 % of total cells"}, {"measurement": "Nuclear localization (% of total cells)", "setting": "YAP/TAZ; IPF-2 patient fibroblasts", "value": "49.54 % of total cells"}, {"measurement": "Nuclear localization (% of total cells)", "setting": "YAP/TAZ; IPF-3 patient fibroblasts", "value": "78.48 % of total cells"}, {"measurement": "Nuclear localization (% of total cells)", "setting": "YAP/TAZ; IPF-4 patient fibroblasts", "value": "60.66 % of total cells"}, {"measurement": "αSMA intensity (% of DMSO control)", "setting": "αSMA; IPF-1 patient fibroblasts", "value": "83.68 % of DMSO control"}, {"measurement": "αSMA intensity (% of DMSO control)", "setting": "αSMA; IPF-2 patient fibroblasts", "value": "85.45 % of DMSO control"}, {"measurement": "αSMA intensity (% of DMSO control)", "setting": "αSMA; IPF-3 patient fibroblasts", "value": "94.2538 % of DMSO control"}, {"measurement": "αSMA intensity (% of DMSO control)", "setting": "αSMA; IPF-4 patient fibroblasts", "value": "75.15 % of DMSO control"}]}, {"smiles": "CCCN(CCC)[C@@H]1CCc2c(OC)cccc2[C@@H]1C.O=C(O)/C=C/C(=O)O", "note": "[(+)-UH 232 maleate, (+)-UH 232]", "values": [{"measurement": "Nuclear localization (% of total cells)", "setting": "YAP/TAZ; IPF-1 patient fibroblasts", "value": "61.9521 % of total cells"}, {"measurement": "Nuclear localization (% of total cells)", "setting": "YAP/TAZ; IPF-2 patient fibroblasts", "value": "68 % of total cells"}, {"measurement": "Nuclear localization (% of total cells)", "setting": "YAP/TAZ; IPF-3 patient fibroblasts", "value": "71.85 % of total cells"}, {"measurement": "Nuclear localization (% of total cells)", "setting": "YAP/TAZ; IPF-4 patient fibroblasts", "value": "67.27 % of total cells"}, {"measurement": "αSMA intensity (% of DMSO control)", "setting": "αSMA; IPF-1 patient fibroblasts", "value": "82.91 % of DMSO control"}, {"measurement": "αSMA intensity (% of DMSO control)", "setting": "αSMA; IPF-2 patient fibroblasts", "value": "63.85 % of DMSO control"}, {"measurement": "αSMA intensity (% of DMSO control)", "setting": "αSMA; IPF-3 patient fibroblasts", "value": "85.81 % of DMSO control"}, {"measurement": "αSMA intensity (% of DMSO control)", "setting": "αSMA; IPF-4 patient fibroblasts", "value": "65.71 % of DMSO control"}]}, {"smiles": "CN1C[C@@H](NS(=O)(=O)N(C)C)C[C@@H]2c3cccc4c3c(cn4C)C[C@H]21", "note": "[Mesulergine•HCl, Mesulergine]", "values": [{"measurement": "Nuclear localization (% of total cells)", "setting": "YAP/TAZ; IPF-1 patient fibroblasts", "value": "37.81 % of total cells"}, {"measurement": "Nuclear localization (% of total cells)", "setting": "YAP/TAZ; IPF-2 patient fibroblasts", "value": "45.14 % of total cells"}, {"measurement": "Nuclear localization (% of total cells)", "setting": "YAP/TAZ; IPF-3 patient fibroblasts", "value": "78.625 % of total cells"}, {"measurement": "Nuclear localization (% of total cells)", "setting": "YAP/TAZ; IPF-4 patient fibroblasts", "value": "45.14 % of total cells"}]}, {"smiles": "NCCc1ccc(O)cc1", "note": "[4-Hydroxyphenethylamine•HCl, 4-Hydroxyphenethylamine]", "values": [{"measurement": "Nuclear localization (% of total cells)", "setting": "YAP/TAZ; IPF-1 patient fibroblasts", "value": "56.52 % of total cells"}, {"measurement": "Nuclear localization (% of total cells)", "setting": "YAP/TAZ; IPF-2 patient fibroblasts", "value": "45.69 % of total cells"}, {"measurement": "Nuclear localization (% of total cells)", "setting": "YAP/TAZ; IPF-3 patient fibroblasts", "value": "76.57 % of total cells"}, {"measurement": "Nuclear localization (% of total cells)", "setting": "YAP/TAZ; IPF-4 patient fibroblasts", "value": "43.3719 % of total cells"}]}, {"smiles": "C=CCN1C[C@H](C(=O)N(CCCN(C)C)C(=O)NCC)C[C@@H]2c3cccc4[nH]cc(c34)C[C@H]21", "note": "[Cabergoline]", "values": [{"measurement": "Nuclear localization (% of total cells)", "setting": "YAP/TAZ; IPF-1 patient fibroblasts", "value": "57.02 % of total cells"}, {"measurement": "Nuclear localization (% of total cells)", "setting": "YAP/TAZ; IPF-2 patient fibroblasts", "value": "57.41 % of total cells"}, {"measurement": "Nuclear localization (% of total cells)", "setting": "YAP/TAZ; IPF-3 patient fibroblasts", "value": "45.95 % of total cells"}, {"measurement": "Nuclear localization (% of total cells)", "setting": "YAP/TAZ; IPF-4 patient fibroblasts", "value": "68.69 % of total cells"}]}, {"smiles": "Oc1cc2c(cc1O)[C@@H](c1ccccc1)CNCC2", "note": "[SKF 38393•HBr, SKF 38393]", "values": [{"measurement": "Nuclear localization (% of total cells)", "setting": "YAP/TAZ; IPF-1 patient fibroblasts", "value": "69.5873 % of total cells"}, {"measurement": "Nuclear localization (% of total cells)", "setting": "YAP/TAZ; IPF-2 patient fibroblasts", "value": "47.375 % of total cells"}, {"measurement": "Nuclear localization (% of total cells)", "setting": "YAP/TAZ; IPF-3 patient fibroblasts", "value": "61.33 % of total cells"}, {"measurement": "Nuclear localization (% of total cells)", "setting": "YAP/TAZ; IPF-4 patient fibroblasts", "value": "35.79 % of total cells"}]}, {"smiles": "CCCN[C@H]1CCc2nc(N)sc2C1", "note": "[Pramipexole Dihydrochloride Monohydrate, Pramipexole]", "values": [{"measurement": "Nuclear localization (% of total cells)", "setting": "YAP/TAZ; IPF-1 patient fibroblasts", "value": "64.92 % of total cells"}, {"measurement": "Nuclear localization (% of total cells)", "setting": "YAP/TAZ; IPF-2 patient fibroblasts", "value": "47.65 % of total cells"}, {"measurement": "Nuclear localization (% of total cells)", "setting": "YAP/TAZ; IPF-3 patient fibroblasts", "value": "65.5 % of total cells"}, {"measurement": "Nuclear localization (% of total cells)", "setting": "YAP/TAZ; IPF-4 patient fibroblasts", "value": "58.97 % of total cells"}]}, {"smiles": "c1cnc(N2CCN(Cc3ccc4c(c3)OCO4)CC2)nc1", "note": "[Piribedil•2HCl, Piribedil]", "values": [{"measurement": "Nuclear localization (% of total cells)", "setting": "YAP/TAZ; IPF-1 patient fibroblasts", "value": "61.58 % of total cells"}, {"measurement": "Nuclear localization (% of total cells)", "setting": "YAP/TAZ; IPF-2 patient fibroblasts", "value": "85.76 % of total cells"}, {"measurement": "Nuclear localization (% of total cells)", "setting": "YAP/TAZ; IPF-3 patient fibroblasts", "value": "59.05 % of total cells"}, {"measurement": "Nuclear localization (% of total cells)", "setting": "YAP/TAZ; IPF-4 patient fibroblasts", "value": "59.64 % of total cells"}]}, {"smiles": "CCCN1C[C@H](CSC)C[C@@H]2c3cccc4[nH]cc(c34)C[C@H]21", "note": "[Pergolide mesylate, Pergolide]", "values": [{"measurement": "Nuclear localization (% of total cells)", "setting": "YAP/TAZ; IPF-1 patient fibroblasts", "value": "82.49 % of total cells"}, {"measurement": "Nuclear localization (% of total cells)", "setting": "YAP/TAZ; IPF-2 patient fibroblasts", "value": "69.37 % of total cells"}, {"measurement": "Nuclear localization (% of total cells)", "setting": "YAP/TAZ; IPF-3 patient fibroblasts", "value": "70.67 % of total cells"}, {"measurement": "Nuclear localization (% of total cells)", "setting": "YAP/TAZ; IPF-4 patient fibroblasts", "value": "65.58 % of total cells"}]}, {"smiles": "CC(C)C[C@H]1C(=O)N2CCC[C@H]2[C@]2(O)O[C@](NC(=O)[C@@H]3C=C4c5cccc6[nH]c(Br)c(c56)C[C@H]4N(C)C3)(C(C)C)C(=O)N12", "note": "[Bromocriptine mesylate, Bromocriptine]", "values": [{"measurement": "Nuclear localization (% of total cells)", "setting": "YAP/TAZ; IPF-1 patient fibroblasts", "value": "73.03 % of total cells"}, {"measurement": "Nuclear localization (% of total cells)", "setting": "YAP/TAZ; IPF-2 patient fibroblasts", "value": "52.81 % of total cells"}, {"measurement": "Nuclear localization (% of total cells)", "setting": "YAP/TAZ; IPF-3 patient fibroblasts", "value": "64.09 % of total cells"}, {"measurement": "Nuclear localization (% of total cells)", "setting": "YAP/TAZ; IPF-4 patient fibroblasts", "value": "64.6 % of total cells"}]}]}
